Laboratory results taken from patent US7910621B2, “Small molecule antagonists of XIAP family proteins” (The Regents of the University of Michigan, priority 2004, dated 2011).

Key:
[1] = target: XIAP BIR3 protein of human XIAP (residues 241-356) (Homo sapiens, UniProt P98170); conditions: read-out: IC50 (displacement of SM7F from XIAP BIR3); 10 nM SM7F, 0.060 μM XIAP BIR3; three independent experiments in triplicate
[2] = system: caspase-9 in PC-3 cells; experiment: Activation of caspase-9 assay, PC-3; format: cell-based, human; conditions: for increase in activated caspase-9 as compared to vehicle treated control cells / PC-3 cells positively stained for activated caspase-9: 42 hrs; for PC-3 cells positively stained for activated caspase-9: vehicle control 3.1%
Description: FIGS. 7A and 7B show the activation of caspase-9 by embelin in PC-3 prostate cancer cells and its selectivity in normal prostate epithelial cells. 1×10^6 PC-3 or PrEC cells per well in 6-well culture plates were treated with embelin for 48 hours. […] The cells were collected and stained of active caspase-9 by CaspGLOW Red Active Caspase-9 Staining Kit, and analyzed by flow cytometry in PI channel.
1×10^6 PC-3 cells per well in 6-well culture plates, were treated with various concentrations of embelin, or the same amount of solvent DMSO as vehicle control, for up to 48 hr. […] The cells were collected for staining of active caspase-9 by CaspGLOW Red Active Caspase-9 Staining Kit (BioVision, Inc., Mountain View, Calif.) according to the manufacturer's instructions, with modification. Briefly, to each tube containing 1×10^6 treated or control cells in 0.3 ml complete culture medium was added 1 μl of Red-LEHD-FMK and incubated for 0.5 hr at 37° C. incubator with 5% CO2. For double staining with Annexin V-FITC, the cells were spun down and resuspended in 100 μl Binding Buffer containing 1× Annexin V-FITC from the Annexin-V-FLUOS Kit (Roche) and incubated at room temperature for 10 min. The cells were then washed two times with Wash Buffer from the Active Caspase-9 Staining Kit. The cells were resuspended in 0.3 ml Binding Buffer and analyzed by flow cytometry, using PI channel for active caspase-9 and FITC channel for apoptosis.
The active caspase-9 and Annexin V double stained cells were also observed under Zeiss Laser Scanning Confocal Microscope LSM 510 Meta, using the fluorescent filter sets for rhodamine (Red) and FITC (green) channels. Early apoptotic cells show green fluorescence on the cell membrane while caspase-9 positive cells show bright red staining in the cytoplasm. Photos were taken at original magnification of 630×.

[3] = system: methylcholanthrene-induced fibrosarcoma; conditions: methylcholanthrene-induced fibrosarcoma in albino rats (Chitra et al. 1994); cited from earlier work
[4] = system: PC-3 prostate cancer cells; experiment: WST-1 cell growth inhibition assay, PC-3; format: cell-based; conditions: Homo sapiens, 120 h; PC-3, WST-1, five days
Description: (§1) FIG. 5 presents inhibition of cell growth by embelin in prostate cancer cells (PC-3 and LnCap) and its selectivity in normal human prostate epithelial cells (PrEC) and normal human fibroblast cell line, WI-38. 5000 cells per well in a 96-well cell culture plate were treated with various concentrations of embelin in triplicate. Five days later, the cell growth was measured by the WST-1 cell growth assay kit […] The cell growth results are expressed as the percent of control and calculated from the percent of absorbance of treated wells versus that of vehicle control.
(§2) Human prostate cancer cell lines (PC-3, LNCap, CL-1, DU-145), and normal human fibroblast cell line WI-38 were obtained from the American Type Culture Collection (ATCC), were grown and maintained in Dulbecco's modified Eagle's medium (DMEM) containing 10% FBS (Invitrogen Corporation). Normal human prostate epithelial cells (PrEC) were obtained from Clonetics (Cambrex Inc., MD) and maintained in the special medium provided by the company. […]
(§3) Cell growth was determined by the MTT-based assay using Cell Proliferation Reagent WST-1 (Roche) according to the manufacturer's instruction. […] Absorbance was measured with a plate reader at […] with correction at […]. The results are expressed as the percent of absorbance of treated wells versus that of vehicle control.

[5] = system: PC-3 prostate cancer cells; experiment: Annexin V-FITC apoptosis assay by flow cytometry, PC-3; format: cell-based, human; conditions: 48 hours
Description: FIG. 6 presents induction of apoptosis by embelin in PC-3 prostate cancer cells. 1×10^6 PC-3 cells per well in 6-well culture plates were treated with embelin for 48 hours, stained with Annexin V-FITC and propidium iodide for apoptosis by flow cytometry. The results are shown as percent of Annexin V-FITC positive apoptotic cells (n=3).
PC-3 cells, 1×10^6 cells per well in 6-well culture plates, were treated in triplicate with various concentrations of embelin for 24 or 48 hours, then trypsinized and washed with PBS. For Jurkat cells, 1×10^6 Jurkat-XIAP or Jurkat-Vec cells per well in 6-well culture plates, were treated with etoposide, embelin, or both for 15 hours. For flow cytometry apoptosis assay, cells were stained with Annexin V-FITC and propidium iodide using the Annexin-V-FLUOS Kit (Roche) according to the manufacturer's instruction. The fluorescence of Annexin V-FITC and propidium iodide of individual cells was analyzed by FACScan. The results are shown as percent of Annexin V-FITC positive apoptotic cells.

[6] = system: LNCap prostate cancer cells; experiment: WST-1 cell growth inhibition assay, LNCaP; format: cell-based; conditions: Homo sapiens, 120 h, WST-1, five days
Description: as §1, §2, §3

XIAP BIR3 protein of human XIAP (residues 241-356), sequence (P98170 241-356): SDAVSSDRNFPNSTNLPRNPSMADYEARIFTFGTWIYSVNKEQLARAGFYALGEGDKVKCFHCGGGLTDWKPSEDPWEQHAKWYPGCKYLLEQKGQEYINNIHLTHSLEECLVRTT

- IC50 [1]: 4.1 ± 1.1 µM
- IC50 [4]: 3.7 µM
- IC50 [6]: 5.7 µM
SMILES: CCCCCCCCCCCC1=C(O)C(=O)C=C(O)C1=O [embelin]
- increase in activated caspase-9 as compared to vehicle treated control cells ([2]; 20 μM): 10 fold
- PC-3 cells positively stained for activated caspase-9 ([2]; 20 μM): 33.0%
- increase in activated caspase-9 as compared to vehicle treated control cells ([2]; 40 μM): 20 fold
- PC-3 cells positively stained for activated caspase-9 ([2]; 40 μM): 62.1%
- activation of caspase-9 in PC-3 cells ([2]; in words): effectively activates caspase-9 in a dose-dependant manner
- antitumor activity [3]: significant antitumor activity
- PC-3 cells that underwent apoptosis (Annexin V-FITC positive) ([5]; 25 μM): 30%
- increase in apoptosis as compared to control cells ([5]; 25 μM): approximately 3 fold
- PC-3 cells that underwent apoptosis (Annexin V-FITC positive) ([5]; 50 μM): 75%
- increase in apoptosis as compared to control cells ([5]; 50 μM): ~9 fold
